ChEMBL document CHEMBL1201862, “PubChem BioAssay data set” (2004)
Activity calls are given as the source filed them.

Key:
[1] = Luminescence Cell-Based Dose Confirmation HTS to Identify Inhibitors of Platelet Dense Granule Release. [Related pubchem assays: 1663 (Primary HTS), 1678 (Summary of Project)]; assay type: functional
[2] = biological target: T1, Voltage-gated N-type calcium channel alpha-1B subunit/Amyloid beta A4 precursor protein-binding family A member 1 (Homo sapiens, UniProt Q00975+Q02410); assay type: protein assay
[3] = biological target: T1, Voltage-gated N-type calcium channel alpha-1B subunit/Amyloid beta A4 precursor protein-binding family A member 1; assay type: protein assay; remark: listed apart in the source
[4] = biological target: Ubiquitin carboxyl-terminal hydrolase BAP1 (Homo sapiens, UniProt Q92560); assay: BAP1 deubiquitinase inhibitors, dose response, biochemical (AID 714); assay type: functional
[5] = M. tuberculosis H37Rv growth inhibitors, H37Rv strain (AID 1626); assay type: functional
[6] = biological target: Luciferin 4-monooxygenase (Photinus pyralis, UniProt P08659); assay: firefly luciferase enzyme inhibitors, dose response, biochemical, luminescence (AID 1891)
[7] = biological target: T2, Tyrosine-protein phosphatase non-receptor type 7 (Homo sapiens, UniProt P35236); assay: inhibitors of human HePTP phosphatase, […], biochemical, absorbance, leukemia target (AID 521); assay type: functional
T2 sequence (P35236 whole entry): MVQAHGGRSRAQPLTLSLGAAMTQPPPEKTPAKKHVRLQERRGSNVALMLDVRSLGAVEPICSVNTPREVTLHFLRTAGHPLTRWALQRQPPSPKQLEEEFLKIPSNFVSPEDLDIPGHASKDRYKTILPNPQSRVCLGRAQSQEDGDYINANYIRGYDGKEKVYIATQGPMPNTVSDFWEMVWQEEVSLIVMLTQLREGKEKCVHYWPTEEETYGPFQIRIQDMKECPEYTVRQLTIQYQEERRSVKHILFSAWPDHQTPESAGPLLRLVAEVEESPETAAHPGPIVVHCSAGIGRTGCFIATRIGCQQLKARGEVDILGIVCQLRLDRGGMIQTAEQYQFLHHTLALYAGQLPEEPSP

[8] = biological target: T3, Rac GTPase-activating protein 1 (Homo sapiens, UniProt Q9H0H5); assay: MgcRacGAP GTPase-activating activity inhibitors, confirmation, biochemical, ADP Hunter fluorescence, primary and confirmatory (AID 624330); assay type: functional
T3 sequence (Q9H0H5 whole entry): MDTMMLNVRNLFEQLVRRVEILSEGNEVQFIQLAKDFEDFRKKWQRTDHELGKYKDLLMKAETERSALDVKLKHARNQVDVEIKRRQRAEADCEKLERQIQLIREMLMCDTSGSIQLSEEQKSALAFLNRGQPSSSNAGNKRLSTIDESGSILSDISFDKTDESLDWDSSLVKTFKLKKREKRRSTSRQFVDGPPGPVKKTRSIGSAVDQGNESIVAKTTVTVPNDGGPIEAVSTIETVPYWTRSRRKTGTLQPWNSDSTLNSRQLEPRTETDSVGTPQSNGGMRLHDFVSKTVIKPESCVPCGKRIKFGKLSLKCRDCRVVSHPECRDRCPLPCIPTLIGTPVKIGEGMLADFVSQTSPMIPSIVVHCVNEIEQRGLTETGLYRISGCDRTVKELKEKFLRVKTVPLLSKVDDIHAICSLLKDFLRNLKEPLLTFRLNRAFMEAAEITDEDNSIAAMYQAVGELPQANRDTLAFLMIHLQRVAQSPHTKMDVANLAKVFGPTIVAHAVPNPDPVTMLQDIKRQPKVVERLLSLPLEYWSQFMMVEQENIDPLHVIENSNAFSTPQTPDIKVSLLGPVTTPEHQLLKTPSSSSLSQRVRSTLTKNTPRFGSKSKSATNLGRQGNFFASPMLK

[9] = biological target: Sphingosine 1-phosphate receptor 2 (Homo sapiens, UniProt O95136); assay: Dose Response Cell Based Assay for Agonists of the S1P2 Receptor. [Related pubchem assays: 729, 736, 843 ]; assay type: functional
Cytochrome P450 2C19 = Cytochrome P450 2C19 (Homo sapiens, UniProt P33261); assay: qHTS Assay for Inhibitors and Substrates of Cytochrome P450 2C19. [Related pubchem assays: 410 ]; assay type: ADME; conditions: read-out: Potency
Streptokinase A = biological target: T4, Streptokinase A (Streptococcus pyogenes serotype M1, UniProt P10520); assay: S. pyogenes streptokinase expression inhibitors, potency, dose response, plasminogen activation absorbance, OD405 (AID 1914); assay type: functional, Streptococcus pyogenes M1 GAS;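 also: secreted streptokinase activity via plasminogen activation per viability signal from cell pellet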
T4 sequence (P10520 whole entry): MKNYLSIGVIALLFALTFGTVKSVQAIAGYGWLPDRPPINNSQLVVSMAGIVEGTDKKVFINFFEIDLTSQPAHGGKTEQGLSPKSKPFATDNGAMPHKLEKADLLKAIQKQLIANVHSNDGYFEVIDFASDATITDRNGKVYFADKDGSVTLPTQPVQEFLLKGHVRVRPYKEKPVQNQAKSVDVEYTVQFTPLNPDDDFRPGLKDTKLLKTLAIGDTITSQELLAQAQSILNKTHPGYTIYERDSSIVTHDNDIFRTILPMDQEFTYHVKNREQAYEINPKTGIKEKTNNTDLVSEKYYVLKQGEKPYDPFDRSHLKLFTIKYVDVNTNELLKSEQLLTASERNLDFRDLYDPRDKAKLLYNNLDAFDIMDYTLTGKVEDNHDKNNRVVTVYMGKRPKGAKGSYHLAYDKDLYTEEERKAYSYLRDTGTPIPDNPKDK

cells [10] = assay type: functional, cell-based
[11] = inhibitors of intracellular T. cruzi replication, confirmation, NIH3T3 host cells, beta-gal luminescence (AID 2044); assay type: functional, cell-based;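 also: intracellular parasites grown in NIH/3T3 mouse fibroblasts as host cells; luminescent beta-galactosidase reporter signal from transgenic T. cruzi replicating inside host cells; inhibitors lower the luminescence signal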
INS1 = assay: beta cell apoptosis inhibitors, cytokine rescue, dose response, luminescence, retest (AID 449756); assay type: functional, cell-based; conditions: Rattus norvegicus;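 also: cell death triggered by IL-1 beta plus TNF-alpha plus IFN-gamma mixture; protective hits raise ATP signal compared with cytokine alone wells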
[12] = tested on: Streptococcus sp. 'group A'; assay: growth inhibition of control SK(-) GAS strain, dose response, counter-screen for streptokinase expression inhibitor project, luminescence, kanamycin, BacTiterGlo, confirmation (AID 1900); assay type: functional, organism-based
Galanin receptor type 2 = Galanin receptor type 2 (Homo sapiens, UniProt O43603); assay: Dose Response cell-based high-throughput screening assay to identify agonists of galanin receptor 2 (GALR2). [Related pubchem assays: 864 ]; assay type: functional
cells [13] = assay type: functional, cell-based; remark: listed apart in the source
Streptococcus = assay: Group A Streptococcus viability loss, dose response, counter-screen for streptokinase expression inhibitor project, luminescence, BacTiterGlo (AID 1915); assay type: functional, organism-based;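 also: potency for reduction of bacterial viability or growth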
[14] = cytotoxicity toward NIH3T3 fibroblasts, dose response, counter-screen, cell-based, ATP luminescence, mouse fibroblasts (AID 2010); assay type: functional;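 also: cells exposed to compound for about 90 hours before reading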
[15] = biological target: T5, Replicative DNA helicase DnaB (Mycobacterium tuberculosis, UniProt P9WMR3); assay: DnaB intein splicing inhibitors, dose response, biochemical, cell-free fluorescence (AID 449749); assay type: functional
T5 sequence (P9WMR3 whole entry): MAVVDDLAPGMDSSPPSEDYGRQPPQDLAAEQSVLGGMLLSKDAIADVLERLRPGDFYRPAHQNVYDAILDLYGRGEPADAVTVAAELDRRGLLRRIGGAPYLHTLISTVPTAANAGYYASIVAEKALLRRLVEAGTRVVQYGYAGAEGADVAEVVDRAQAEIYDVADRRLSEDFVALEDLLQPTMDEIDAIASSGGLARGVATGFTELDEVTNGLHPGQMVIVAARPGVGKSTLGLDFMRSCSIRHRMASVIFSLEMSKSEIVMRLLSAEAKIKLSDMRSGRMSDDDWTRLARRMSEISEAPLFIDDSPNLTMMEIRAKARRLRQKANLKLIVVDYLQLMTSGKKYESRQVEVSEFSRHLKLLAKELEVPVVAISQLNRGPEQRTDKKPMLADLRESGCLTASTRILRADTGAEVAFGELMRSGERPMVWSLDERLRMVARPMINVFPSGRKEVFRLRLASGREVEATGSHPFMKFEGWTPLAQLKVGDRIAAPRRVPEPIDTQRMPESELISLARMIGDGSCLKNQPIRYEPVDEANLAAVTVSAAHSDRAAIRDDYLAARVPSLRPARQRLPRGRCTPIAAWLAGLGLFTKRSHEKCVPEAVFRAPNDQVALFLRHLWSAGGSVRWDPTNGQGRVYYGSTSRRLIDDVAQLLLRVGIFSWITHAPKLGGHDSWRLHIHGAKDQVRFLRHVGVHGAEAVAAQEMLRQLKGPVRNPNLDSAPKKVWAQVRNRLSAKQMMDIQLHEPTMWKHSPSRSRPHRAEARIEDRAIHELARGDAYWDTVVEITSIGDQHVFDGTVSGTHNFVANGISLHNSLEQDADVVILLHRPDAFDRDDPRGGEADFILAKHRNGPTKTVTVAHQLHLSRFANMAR

[16] = Luminescent dose response cell-based high throughput screening assay for inhibitors of the Janus kinase 2 mutant JAK2V617F. [Related pubchem assays: 1446 (Primary screen.), 1521 (Confirmation assay.), 1486 (Counter screen.)]; assay type: functional
Protein RecA = biological target: T6, Protein RecA (Mycobacterium tuberculosis, UniProt P9WHJ3); assay: Fluorescence Cell-Free Homogeneous Dose Retest to Identify Inhibitors of RecA-Intein Splicing Activity. [Related pubchem assays (depositor defined):AID2097, AID2223, AID489010, AID492950]; assay type: functional
T6 sequence (P9WHJ3 whole entry): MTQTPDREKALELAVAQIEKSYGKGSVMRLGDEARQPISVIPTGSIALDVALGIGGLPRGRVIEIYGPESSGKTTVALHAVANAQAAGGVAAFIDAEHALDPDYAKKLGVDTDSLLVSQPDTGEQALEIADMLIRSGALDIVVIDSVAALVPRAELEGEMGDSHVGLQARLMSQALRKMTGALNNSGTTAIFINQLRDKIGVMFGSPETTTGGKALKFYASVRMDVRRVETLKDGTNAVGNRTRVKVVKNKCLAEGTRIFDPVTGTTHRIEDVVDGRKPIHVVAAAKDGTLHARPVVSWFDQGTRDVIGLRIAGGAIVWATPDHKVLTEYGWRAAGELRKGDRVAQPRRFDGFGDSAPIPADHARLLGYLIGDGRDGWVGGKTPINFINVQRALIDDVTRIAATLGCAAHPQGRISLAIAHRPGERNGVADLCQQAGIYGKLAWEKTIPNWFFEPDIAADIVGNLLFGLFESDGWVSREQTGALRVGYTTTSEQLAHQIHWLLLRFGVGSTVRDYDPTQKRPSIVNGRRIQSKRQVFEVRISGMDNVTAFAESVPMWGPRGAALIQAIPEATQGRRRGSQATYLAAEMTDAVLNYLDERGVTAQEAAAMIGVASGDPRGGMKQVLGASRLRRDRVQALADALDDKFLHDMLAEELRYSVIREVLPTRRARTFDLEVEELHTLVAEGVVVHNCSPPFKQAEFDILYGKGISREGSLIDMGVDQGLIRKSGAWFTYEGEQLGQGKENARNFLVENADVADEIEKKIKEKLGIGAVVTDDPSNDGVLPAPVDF

T1 sequence (Q00975 whole entry): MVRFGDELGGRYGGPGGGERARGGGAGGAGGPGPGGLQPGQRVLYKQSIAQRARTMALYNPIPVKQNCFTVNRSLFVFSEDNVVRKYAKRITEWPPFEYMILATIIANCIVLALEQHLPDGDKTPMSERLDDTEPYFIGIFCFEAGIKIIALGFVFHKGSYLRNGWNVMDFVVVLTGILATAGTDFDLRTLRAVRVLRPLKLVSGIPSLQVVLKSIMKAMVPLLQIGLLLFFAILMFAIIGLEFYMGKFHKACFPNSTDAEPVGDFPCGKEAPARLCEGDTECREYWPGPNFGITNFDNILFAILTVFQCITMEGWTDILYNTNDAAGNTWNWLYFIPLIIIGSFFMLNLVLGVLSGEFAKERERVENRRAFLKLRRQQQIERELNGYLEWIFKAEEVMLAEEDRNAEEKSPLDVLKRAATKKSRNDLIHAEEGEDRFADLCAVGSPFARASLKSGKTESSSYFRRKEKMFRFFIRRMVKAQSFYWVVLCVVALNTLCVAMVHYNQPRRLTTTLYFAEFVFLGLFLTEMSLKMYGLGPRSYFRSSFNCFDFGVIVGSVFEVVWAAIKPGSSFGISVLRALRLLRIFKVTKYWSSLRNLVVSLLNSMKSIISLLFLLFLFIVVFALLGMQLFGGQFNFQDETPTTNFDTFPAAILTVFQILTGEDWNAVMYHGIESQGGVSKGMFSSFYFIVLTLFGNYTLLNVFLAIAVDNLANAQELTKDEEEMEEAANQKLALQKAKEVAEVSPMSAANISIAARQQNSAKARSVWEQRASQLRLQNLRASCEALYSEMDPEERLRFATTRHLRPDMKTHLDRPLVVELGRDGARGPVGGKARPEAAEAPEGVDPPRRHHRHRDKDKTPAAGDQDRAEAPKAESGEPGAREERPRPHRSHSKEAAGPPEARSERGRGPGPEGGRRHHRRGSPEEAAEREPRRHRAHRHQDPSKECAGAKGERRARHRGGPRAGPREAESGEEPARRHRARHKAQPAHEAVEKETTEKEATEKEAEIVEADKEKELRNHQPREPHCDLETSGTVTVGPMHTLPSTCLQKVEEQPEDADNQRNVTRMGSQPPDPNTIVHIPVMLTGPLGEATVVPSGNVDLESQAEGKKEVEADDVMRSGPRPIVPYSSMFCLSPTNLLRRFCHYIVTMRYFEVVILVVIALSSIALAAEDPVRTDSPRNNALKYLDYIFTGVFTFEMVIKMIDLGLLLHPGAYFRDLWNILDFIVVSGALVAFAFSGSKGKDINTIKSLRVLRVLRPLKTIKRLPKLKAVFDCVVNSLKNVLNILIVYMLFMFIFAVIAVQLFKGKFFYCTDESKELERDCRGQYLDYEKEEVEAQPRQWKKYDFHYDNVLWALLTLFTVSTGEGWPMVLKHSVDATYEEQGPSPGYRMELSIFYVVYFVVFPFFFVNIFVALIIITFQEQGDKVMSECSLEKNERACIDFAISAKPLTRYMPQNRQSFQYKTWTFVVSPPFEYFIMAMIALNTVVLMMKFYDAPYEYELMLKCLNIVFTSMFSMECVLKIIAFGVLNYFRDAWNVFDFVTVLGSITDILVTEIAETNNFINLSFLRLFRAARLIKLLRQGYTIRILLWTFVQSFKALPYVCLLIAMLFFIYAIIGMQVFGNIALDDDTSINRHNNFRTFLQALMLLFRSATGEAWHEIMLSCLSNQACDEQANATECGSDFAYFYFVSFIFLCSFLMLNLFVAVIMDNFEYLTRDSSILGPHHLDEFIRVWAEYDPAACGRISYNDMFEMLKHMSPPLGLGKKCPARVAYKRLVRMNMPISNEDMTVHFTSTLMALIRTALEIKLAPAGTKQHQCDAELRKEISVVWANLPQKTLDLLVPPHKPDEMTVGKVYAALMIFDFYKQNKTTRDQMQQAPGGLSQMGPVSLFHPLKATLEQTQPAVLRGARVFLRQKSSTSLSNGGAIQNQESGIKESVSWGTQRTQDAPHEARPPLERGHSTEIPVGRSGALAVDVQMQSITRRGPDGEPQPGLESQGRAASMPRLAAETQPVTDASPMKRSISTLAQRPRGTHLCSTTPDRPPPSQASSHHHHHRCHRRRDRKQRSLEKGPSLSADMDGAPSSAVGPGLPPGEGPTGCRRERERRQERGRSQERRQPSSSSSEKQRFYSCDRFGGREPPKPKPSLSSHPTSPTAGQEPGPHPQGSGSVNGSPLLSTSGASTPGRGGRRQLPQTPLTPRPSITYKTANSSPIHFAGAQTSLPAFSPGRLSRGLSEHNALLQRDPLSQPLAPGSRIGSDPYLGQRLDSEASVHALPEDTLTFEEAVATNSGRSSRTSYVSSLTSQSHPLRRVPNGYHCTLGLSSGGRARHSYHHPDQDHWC
T1 sequence (Q02410 whole entry): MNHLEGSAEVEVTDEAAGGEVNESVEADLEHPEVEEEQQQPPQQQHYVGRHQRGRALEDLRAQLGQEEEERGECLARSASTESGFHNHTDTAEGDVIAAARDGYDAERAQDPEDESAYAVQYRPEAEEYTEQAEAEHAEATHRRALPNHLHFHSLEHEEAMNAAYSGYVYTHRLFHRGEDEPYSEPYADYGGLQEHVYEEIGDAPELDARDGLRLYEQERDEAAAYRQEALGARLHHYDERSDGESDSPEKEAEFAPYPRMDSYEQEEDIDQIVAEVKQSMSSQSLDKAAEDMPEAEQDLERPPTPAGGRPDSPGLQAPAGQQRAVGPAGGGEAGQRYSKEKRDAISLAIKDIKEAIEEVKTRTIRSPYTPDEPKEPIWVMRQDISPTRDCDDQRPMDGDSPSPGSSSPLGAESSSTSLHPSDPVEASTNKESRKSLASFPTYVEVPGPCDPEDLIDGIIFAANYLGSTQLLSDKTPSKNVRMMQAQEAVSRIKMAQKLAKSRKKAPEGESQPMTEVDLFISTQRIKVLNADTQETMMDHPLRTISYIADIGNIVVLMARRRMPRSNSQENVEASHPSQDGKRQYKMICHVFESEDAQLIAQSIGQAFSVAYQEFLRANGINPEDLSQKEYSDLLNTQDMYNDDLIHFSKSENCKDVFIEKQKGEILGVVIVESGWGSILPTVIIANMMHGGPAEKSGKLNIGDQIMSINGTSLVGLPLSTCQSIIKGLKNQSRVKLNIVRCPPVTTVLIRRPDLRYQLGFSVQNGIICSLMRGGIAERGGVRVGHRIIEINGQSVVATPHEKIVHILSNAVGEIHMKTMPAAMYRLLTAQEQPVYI
Sphingosine 1-phosphate receptor 2, sequence (O95136 whole entry): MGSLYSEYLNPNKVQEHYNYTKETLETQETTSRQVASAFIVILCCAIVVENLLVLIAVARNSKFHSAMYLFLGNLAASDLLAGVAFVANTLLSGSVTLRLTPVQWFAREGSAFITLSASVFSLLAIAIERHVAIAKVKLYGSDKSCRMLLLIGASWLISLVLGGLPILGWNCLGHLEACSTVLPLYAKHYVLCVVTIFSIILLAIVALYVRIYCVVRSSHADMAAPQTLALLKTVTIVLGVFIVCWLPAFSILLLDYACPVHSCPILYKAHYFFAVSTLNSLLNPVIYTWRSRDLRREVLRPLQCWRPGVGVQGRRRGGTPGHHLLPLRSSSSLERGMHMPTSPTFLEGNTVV
Ubiquitin carboxyl-terminal hydrolase BAP1, sequence (Q92560 whole entry): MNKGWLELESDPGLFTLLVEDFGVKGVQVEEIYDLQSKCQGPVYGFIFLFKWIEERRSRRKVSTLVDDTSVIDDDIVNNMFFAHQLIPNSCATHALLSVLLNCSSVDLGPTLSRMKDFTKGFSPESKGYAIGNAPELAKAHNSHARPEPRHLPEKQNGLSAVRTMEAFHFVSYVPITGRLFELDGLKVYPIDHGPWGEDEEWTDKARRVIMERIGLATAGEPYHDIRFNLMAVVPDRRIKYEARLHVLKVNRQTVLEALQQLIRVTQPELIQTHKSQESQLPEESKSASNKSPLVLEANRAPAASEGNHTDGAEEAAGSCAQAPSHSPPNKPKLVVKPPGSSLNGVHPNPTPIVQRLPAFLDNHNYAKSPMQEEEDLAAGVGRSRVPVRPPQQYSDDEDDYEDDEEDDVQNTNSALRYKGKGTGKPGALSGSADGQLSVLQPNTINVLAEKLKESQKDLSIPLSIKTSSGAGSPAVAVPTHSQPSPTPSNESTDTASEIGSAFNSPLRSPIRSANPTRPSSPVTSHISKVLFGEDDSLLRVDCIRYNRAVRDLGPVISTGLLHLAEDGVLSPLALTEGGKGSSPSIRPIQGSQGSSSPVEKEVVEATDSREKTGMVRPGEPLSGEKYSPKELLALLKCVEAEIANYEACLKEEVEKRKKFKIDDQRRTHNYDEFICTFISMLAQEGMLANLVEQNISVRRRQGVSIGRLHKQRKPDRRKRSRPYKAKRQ
Galanin receptor type 2, sequence (O43603 whole entry): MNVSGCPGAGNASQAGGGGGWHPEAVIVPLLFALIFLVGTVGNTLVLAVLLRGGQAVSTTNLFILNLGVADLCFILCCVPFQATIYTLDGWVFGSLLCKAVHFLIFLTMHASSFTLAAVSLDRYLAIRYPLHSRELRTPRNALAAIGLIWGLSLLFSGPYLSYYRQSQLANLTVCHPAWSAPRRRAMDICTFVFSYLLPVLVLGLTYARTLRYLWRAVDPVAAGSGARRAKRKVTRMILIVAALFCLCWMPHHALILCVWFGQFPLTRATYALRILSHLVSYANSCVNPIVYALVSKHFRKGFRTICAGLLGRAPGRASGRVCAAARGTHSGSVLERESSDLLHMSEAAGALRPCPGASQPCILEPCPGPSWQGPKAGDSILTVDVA

For `COc1ccc(C2CC(=O)N3CN(c4ccc(C)c(Cl)c4)CSC3=C2C#N)cc1OC` (configuration not stated), the EC50 [1] was > 112 µM (not active), the IC50 [2] was > 56.8 µM (not active) and the IC50 [3] was > 50 µM (inactive). For the same molecule, the IC50 [4] was > 50 µM (not active), the IC50 [5] was > 100 µM (active) and the EC50 [6] was > 112 µM (not active).

In the case of `Nc1nc(Nc2cccc3ccccc23)nc(C2CCCC2=O)n1` (configuration not stated), the IC50 [7] is reported as > 100 µM (not active).

With `CCOCCCNc1nc(S)nc2cc(OC)c(OC)cc12` the IC50 [8] was 83 µM (active) and the EC50 [9] was > 50 µM (not active).

With `COc1ccc(CNc2ncnc3ccc(-c4ccccc4OC)cc23)c(OC)c1` the AC50 (Cytochrome P450 2C19) was 3.98 µM (inconclusive).

With `Cc1cc(C)c2nc(NNC(=O)c3ccc(S(=O)(=O)N4CCCC(C)C4)cc3)sc2c1` (configuration not stated) the EC50 (Streptokinase A) was > 150 µM (not active), the EC50 (cells [10]) was > 350 µM (not active) and the EC50 [11] was 1.79 µM (active). For the same molecule, the AC50 (INS1) was 1.81 µM (active), the EC50 [12] was 0.55 µM (active) and the EC50 (Galanin receptor type 2) was > 55.7 µM (not active). For the same molecule, the EC50 (cells [13]) was 8.41 µM (active), the EC50 (Streptococcus) was 11.5 µM (active) and the EC50 [14] was 3.22 µM (active).

For `CC(C)(C)c1cc(NC(=O)CCl)n(-c2ccccc2)n1`, the AC50 [15] was 65.1 µM (active), the IC50 [16] was 1.79 µM (active) and the EC50 (Protein RecA) was 13.6 µM (active).
